Values of other authors as cited in paper PMC3606899 (Journal of molecular medicine (Berlin, Germany), 2012).
pIC50: −log10 of the molar value.

Target: PHD2 (Homo sapiens, UniProt Q9GZT9)
Test: PHD inhibitor screen, IC50
Format: biochemical

PHD2, sequence (Q9GZT9 2-426): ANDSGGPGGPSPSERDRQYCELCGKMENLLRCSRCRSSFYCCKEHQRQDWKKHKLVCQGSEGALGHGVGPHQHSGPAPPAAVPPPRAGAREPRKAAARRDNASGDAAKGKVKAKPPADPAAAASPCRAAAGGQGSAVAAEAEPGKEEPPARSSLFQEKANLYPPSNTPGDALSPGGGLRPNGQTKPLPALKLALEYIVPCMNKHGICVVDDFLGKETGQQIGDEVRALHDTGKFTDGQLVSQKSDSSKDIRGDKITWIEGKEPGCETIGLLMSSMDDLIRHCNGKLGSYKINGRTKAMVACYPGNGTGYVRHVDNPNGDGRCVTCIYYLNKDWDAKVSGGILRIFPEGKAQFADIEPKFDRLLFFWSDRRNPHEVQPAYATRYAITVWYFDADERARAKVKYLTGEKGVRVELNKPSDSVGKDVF

pIC50: 4.85
Substance: AKB-4924
